Counter-ions that a name gives are not always drawn. Like-named read-outs stand apart in the source and are kept apart here.
Columns and labels:
Aβ42 = experiment: In vivo efficacy: brain level of soluble Aβ42, non-transgenic rodents, single oral dose 30 mg/kg, 4 h, MSD electrochemiluminescence, untreated control = 100; design: species or system mouse; settings: Mus musculus, read-out: Aβ42 (% vs Ctrl) _Mean
From the text: (§1) To determine whether acute administration of an Aβ42 lowering agent would reduce Aβ42 levels in vivo, non-transgenic rodents, e.g. mice or rats were used. Animals treated with the Aβ42 lowering agent were examined and compared to those untreated or treated with vehicle and brain levels of soluble Aβ42, Aβ40, Aβ38, and Aβ37 were quantitated by Meso Scale Discovery's (MSD) electrochemiluminescence detection technology. Treatment periods varied from hours (h) to days and were adjusted based on the results of the Aβ42 lowering once a time course of onset of effect could be established.
(§2) A typical protocol for measuring Aβ42 lowering in vivo is shown but it is only one of many variations that could be used to optimize the levels of detectable Aβ. For example, Aβ42 lowering compounds were formulated in 20% of Captisol® (a sulfobutyl ether of β-cyclodextrin) in water or 20% hydroxypropyl β cyclodextrin. The Aβ42 lowering agents were administered as a single oral dose or by any acceptable route of administration to overnight fasted animals. After 4 h, the animals were sacrificed and Aβ42 levels were analysed.
(§3) Blood was collected by decapitation and exsanguinations in EDTA-treated collection tubes. Blood was centrifuged at 1900 g for 10 minutes (min) at 4° C. and the plasma recovered and flash frozen for later analysis. The brain was removed from the cranium and hindbrain. The cerebellum was removed and the left and right hemisphere were separated. The left hemisphere was stored at −18° C. for quantitative analysis of test compound levels. The right hemisphere was rinsed with phosphate-buffered saline (PBS) buffer and immediately frozen on dry ice and stored at −80° C. until homogenization for biochemical assays.
(§4) Mouse brains from non-transgenic animals were resuspended in 8 volumes of 0.4% DEA (diethylamine)/50 mM NaCl containing protease inhibitors (Roche-11873580001 or 04693159001) per gram of tissue, e.g. for 0.158 g brain, add 1.264 ml of 0.4% DEA. All samples were homogenized in the FastPrep-24 system (MP Biomedicals) using lysing matrix D (MPBio #6913-100) at 6 m/s for 20 seconds. Homogenates were centrifuged at 20800×g for 5 min and supernatants collected. Supernatants were centrifuged at 221.300×g for 50 min. The resulting high speed supernatants were then transferred to fresh eppendorf tubes. Nine parts of supernatant were neutralized with 1 part 0.5 M Tris-HCl pH 6.8 and used to quantify Aβ.
(§5) To quantify the amount of Aβ42, Aβ40, Aβ38, and Aβ37 in the soluble fraction of the brain homogenates, simultaneous specific detection of Aβ42, Aβ40, Aβ38, and Aβ37 was performed using MSD's electro-chemiluminescence multiplex detection technology. In this assay purified monoclonal antibodies specific for Abeta37 (JRD/Aβ37/3), Abeta38 (J&JPRD/Aβ38/5), Abeta40 (JRF/cAβ40/28), and Abeta42 (JRF/cAβ42/26) were coated on MSD 4-plex plates. Briefly, the standards (a dilution of synthetic Aβ42, Aβ40, Aβ38, and Aβ37) were prepared in 1.5 ml Eppendorf tube in Ultraculture, with final concentrations ranging from 10000 to 0.3 pg/m. The samples and standards were co-incubated with Sulfo-tag labelled JRF/rAß/2 antibody to the N-terminus of Aβ as detector antibody. 50 μl of conjugate/sample or conjugate/standards mixtures were then added to the antibody-coated plate. The plate was allowed to incubate overnight at 4° C. in order to allow formation of the antibody-amyloid complex. Following this incubation and subsequent wash steps the assay was finished by adding read buffer according to the manufacturer's instructions (Meso Scale Discovery, Gaitherburg, Md.).
(§6) The SULFO-TAG emits light upon electrochemical stimulation initiated at the electrode. MSD Sector instrument SI6000 was used for signal read-out.
In this model a Aß42 lowering compared to untreated animals would be advantageous, in particular a Aß42 lowering with at least 10%, more in particular a Aß42 lowering with at least 20%. […]

Aβ40 = experiment: In vivo efficacy: brain level of soluble Aβ40, non-transgenic rodents, single oral dose 30 mg/kg, 4 h, MSD electrochemiluminescence, untreated control = 100; design: species or system mouse; settings: Mus musculus, read-out: Aβ40 (% vs Ctrl) _Mean
From the text: as §1, §2, §3, §4, §5
The SULFO-TAG emits light upon electrochemical stimulation initiated at the electrode. MSD Sector instrument SI6000 was used for signal read-out. […]

Aβ38 = experiment: In vivo efficacy: brain level of soluble Aβ38, non-transgenic rodents, single oral dose 30 mg/kg, 4 h, MSD electrochemiluminescence, untreated control = 100; design: species or system mouse; settings: Mus musculus, read-out: Aβ38 (% vs Ctrl) _Mean
From the text: To determine whether acute administration of an Aβ38 increasing agents would increase Aβ38 levels in vivo, non-transgenic rodents, e.g. mice or rats were used. Animals treated with the Aβ38 increasing agents were examined and compared to those untreated or treated with vehicle and brain levels of soluble Aβ42, Aβ40, Aβ38, and Aβ37 were quantitated by MSD electrochemiluminescence detection technology.
Treatment periods varied from hours (h) to days and were adjusted based on the results of the Aβ38 increase once a time course of onset of effect could be established.
as §2, with “measuring Aβ38 increase” for “measuring Aβ42 lowering”, “example, Aβ38 increasing agents” for “example, Aβ42 lowering compounds”, “The Aβ38 increasing” for “The Aβ42 lowering”, “and Aβ38” for “and Aβ42”
as §3, §4
as §5, with “[…].” for “pg/m.”
as §6
In this model a Aß38 increase compared to untreated animals would be advantageous, in particular a Aß38 increase with at least 10%, more in particular a Aß38 increase with at least 20%. […]

| SMILES | melting point [°C] | also measured |
| --- | --- | --- |
| Cc1cn(-c2ccc3n(c2=O)C[C@@H](C)N(Cc2coc4c(Cl)c(Cl)ccc24)C3=O)cn1 [Compound 97] | 227 |  |
| Cc1cn(-c2ccc3n(c2=O)C[C@@H](C)N(Cc2cc(OC4CC4)cc(C(F)(F)F)c2)C3=O)cn1 [Compound 33] |  | response vs control in vivo at 30 mg/kg (Aβ42; po, dose 30 mg/kg oral dosing): 57%; response vs control in vivo at 30 mg/kg (Aβ40; po, dose 30 mg/kg oral dosing): 79%; response vs control in vivo at 30 mg/kg (Aβ38; po, dose 30 mg/kg oral dosing): 132% |
| Cc1cn(-c2ccc3n(c2=O)CC(C)N(Cc2csc4c2CC(C(F)(F)F)CC4)C3=O)cn1 (centres unmarked) [Compound 35] |  | response vs control in vivo at 30 mg/kg (Aβ42; po, dose 30 mg/kg oral dosing): 112%; response vs control in vivo at 30 mg/kg (Aβ40; po, dose 30 mg/kg oral dosing): 108%; response vs control in vivo at 30 mg/kg (Aβ38; po, dose 30 mg/kg oral dosing): 116% |
| Cc1cn(-c2ccc3n(c2=O)CCN(C(C)c2coc4cc(F)c(Cl)cc24)C3=O)cn1 (single isomer, unassigned) [Compound 60] | 234 |  |
| Cc1cn(-c2ccc3n(c2=O)CCN(CC2Cc4c(cccc4C(F)(F)F)O2)C3=O)cn1 (centres unmarked) [Compound 44] | 128 |  |
| Cc1cn(-c2ccc3n(c2=O)CC(C)N(C(C)c2coc4ccc(C(F)(F)F)cc24)C3=O)cn1 (centres unmarked) [Compound 79] |  | response vs control in vivo at 30 mg/kg (Aβ42; sc, 30 mpk sc): 54%; response vs control in vivo at 30 mg/kg (Aβ40; sc, 30 mpk sc (footnote *)): 62%; response vs control in vivo at 30 mg/kg (Aβ38; sc, 30 mpk sc): 175% |
| Cc1cn(-c2ccc3n(c2=O)CC(C)N(Cc2ccc(C)c(N4CC5CC5C4)c2)C3=O)cn1 (centres unmarked) (as salt: HCl) [Compound 30] | 122 |  |
| Cc1cn(-c2ccc3n(c2=O)CC(C)N(C(C)c2coc4ccc(Cl)cc24)C3=O)cn1 (single isomer, unassigned) [Compound 57] |  | response vs control in vivo at 30 mg/kg (Aβ42; sc, 30 mpk sc): 100%; response vs control in vivo at 30 mg/kg (Aβ40; sc, 30 mpk sc (footnote *)): 105%; response vs control in vivo at 30 mg/kg (Aβ38; sc, 30 mpk sc): 134% |
| Cc1cn(-c2ccc3n(c2=O)C[C@@H](C)N(Cc2coc4ccc(OC(F)(F)F)cc24)C3=O)cn1 [Compound 83] |  | response vs control in vivo at 30 mg/kg (Aβ42; sc, 30 mpk sc): 40%; response vs control in vivo at 30 mg/kg (Aβ40; sc, 30 mpk sc (footnote *)): 41%; response vs control in vivo at 30 mg/kg (Aβ38; sc, 30 mpk sc): 166% |
| Cc1cn(-c2ccc3n(c2=O)C[C@@H](C)N(CC2(c4cc(OC5CC5)cc(C(F)(F)F)c4)CC2)C3=O)cn1 (as salt: HCl) [Compound 53] | 197 |  |
| Cc1cn(-c2ccc3n(c2=O)CCN(C(C)c2coc4cc(C(F)(F)F)ccc24)C3=O)cn1 (single isomer, unassigned) [Compound 68] | 204 |  |
| Cc1cn(-c2ccc3n(c2=O)C[C@@H](C)N(Cc2cc(OC4CC4)cc(C(F)(F)F)c2)C3=O)cn1 (as salt: HCl) [Compound 33] | 149 |  |
| Cc1cn(-c2ccc3n(c2=O)C[C@@H](C)N(Cc2coc4cc(F)c(Cl)cc24)C3=O)cn1 [Compound 63] |  | response vs control in vivo at 30 mg/kg (Aβ42; sc, 30 mpk sc): 58%; response vs control in vivo at 30 mg/kg (Aβ40; sc, 30 mpk sc (footnote *)): 62%; response vs control in vivo at 30 mg/kg (Aβ38; sc, 30 mpk sc): 135% |
| Cc1cn(-c2ccc3n(c2=O)C[C@@H](C)N(Cc2coc4c(F)cc(Cl)cc24)C3=O)cn1 [Compound 62] |  | response vs control in vivo at 30 mg/kg (Aβ42; po, dose 30 mg/kg oral dosing): 82%; response vs control in vivo at 30 mg/kg (Aβ40; po, dose 30 mg/kg oral dosing): 87%; response vs control in vivo at 30 mg/kg (Aβ38; po, dose 30 mg/kg oral dosing): 113% |
| Cc1cn(-c2ccc3n(c2=O)C[C@@H](C)N(CCc2cc(OC4CC4)cc(C(F)(F)F)c2)C3=O)cn1 (as salt: HCl) [Compound 40] | 102 |  |
| Cc1cn(-c2ccc3n(c2=O)CCN(Cc2coc4c(F)cc(Cl)cc24)C3=O)cn1 [Compound 56] | 232 |  |
| Cc1cn(-c2ccc3n(c2=O)CC(C)N(CCN2CCCC(C(F)(F)F)C2)C3=O)cn1 (centres unmarked) (as salt: HCl) [Compound 43] | 138 |  |
| Cc1cn(-c2ccc3n(c2=O)CCN(C(C)c2coc4cc(C(F)(F)F)ccc24)C3=O)cn1 (single isomer, unassigned) [Compound 67] | 200 |  |
| Cc1cn(-c2ccc3n(c2=O)CC(C)N(Cc2noc4ccc(Cl)cc24)C3=O)cn1 (centres unmarked) [Compound 14] | 147 |  |

Further lines, with some results ahead:

| melting point [°C] | SMILES | also measured |
| --- | --- | --- |
| 212 | Cc1cn(-c2ccc3n(c2=O)CC(C)N(C(C)c2ccc(OC(F)(F)F)c(O)c2)C3=O)cn1 (centres unmarked) (as salt: HCl) [Compound 51] |  |
| 162 | Cc1cn(-c2ccc3n(c2=O)C[C@@H](C)N(Cc2csc(C(F)(F)F)c2)C3=O)cn1 [Compound 28] |  |
| 140 | Cc1cn(-c2ccc3n(c2=O)C[C@@H](C)N(Cc2noc4ccc(C(F)(F)F)cc24)C3=O)cn1 [Compound 101] |  |
| 223 | Cc1cn(-c2ccc3n(c2=O)CC(C)N(C(C)c2ccc(OC(F)(F)F)c(O)c2)C3=O)cn1 (centres unmarked) (as salt: HCl) [Compound 52] |  |
| 225 | Cc1cn(-c2ccc3n(c2=O)C[C@@H](C)N(Cc2coc4c(C(F)(F)F)cccc24)C3=O)cn1 [Compound 71] |  |
| 201 | Cc1cn(-c2ccc3n(c2=O)CC(C)N(C(C)c2coc4c(F)cc(Cl)cc24)C3=O)cn1 (centres unmarked) [Compound 96] |  |
| 122 | Cc1cn(-c2ccc3n(c2=O)CC(C)N(C(C)c2cc(OC4CC4)cc(C(F)(F)F)c2)C3=O)cn1 (centres unmarked) (as salt: HCl) [Compound 48] |  |
| 110 | Cc1cn(-c2ccc3n(c2=O)C[C@@H](C)N(Cc2csc(CC(F)(F)F)c2)C3=O)cn1 [Compound 29] |  |
| 144 | Cc1cn(-c2ccc3n(c2=O)C[C@@H](C)N(Cc2cc(C(C)C)nn2CC(F)(F)F)C3=O)cn1 [Compound 19] |  |
| 170 | Cc1cn(-c2ccc3n(c2=O)C[C@@H](C)N(Cc2cnn4ccc(C(F)(F)F)cc24)C3=O)cn1 [Compound 9] |  |
| 164 | Cc1cn(-c2ccc3n(c2=O)C[C@@H](C)N(Cc2cc4cc(C(F)(F)F)ccc4o2)C3=O)cn1 [Compound 26] |  |

— US10562897B2, “Substituted 3,4-dihydro-2H-pyrido[1,2-a]pyrazine-1,6-diones as gamma secretase modulators” (Janssen Pharmaceutica NV, priority 2014, dated 2020)
